Measurements published in patent US12377110B2, “Fospropofol methods and compositions” (Epalex Corporation, priority 2019, dated 2025).

Assay: Study A16 Part 1: PK of single ascending oral doses of fospropofol disodium (200 to 2000 mg), fasted healthy adults
Assay type: in vivo, human
Details: single dose of 800 mg (four 200 mg capsules)
Method: Part 1 of Study A16 was a double-blind, randomized, placebo-controlled study to investigate the safety-tolerability and PK of oral administration of single ascending doses of fospropofol disodium to healthy adult male and female volunteers.
Subjects were healthy adults (age 18-55 years inclusive, BMI 18-29.9 kg/m^2). Separate cohorts of 12 subjects each were randomized to receive fospropofol disodium at doses of 200, 400, 800, 1000, 1200, 1600, or 2000 mg (n=10 per cohort) or matching placebo (n=2 per cohort).
Subjects were admitted to the clinical unit for an overnight fast (Day −1), administered study drug on Day 1, and remained in the clinical unit until Day 2.
Fospropofol disodium was formulated as powder in an HPMC capsule, each capsule containing 200 mg of fospropofol disodium (weight adjusted for water content). Placebo was administered as an appropriate number of matching capsules.
Based on PK results from the early cohorts, sampling times were optimized beginning with Cohort 3 (800 mg) to preclose, 5, 10, 15, 20, 25, 30, 37, and 45, minutes and 1, 2, 4, 6, and 9 hours after closing.

CC(C)c1cccc(C(C)C)c1OCOP(=O)([O-])O.[Na+] [fospropofol disodium]
Tolerability of propofol exposures: well-tolerated
